Where a SMILES comes first, the peptide text is derived from it. Bridges are numbered along the chain shown (N, C = ends). Where no end group is shown, it is not given here.
Key:
[1] = tested on: CHO cells transfected with the vector alone; assay: [Ca2+]i response in CHO cells transfected with the vector alone; format: cell-based, Chinese hamster; conditions: data not shown
Protocol: (§1) An assay system using CG30106- or CG14593-expressing cells was prepared as previously described ([Ida et al., 2011a],[b]). The full-length cDNA of Drosophila CG30106 (GenBank accession number: NM_136355; residues […] to 1700) and CG14593 (GenBank accession number: NM_136355; residues 656–2185) was obtained by RT-PCR using Drosophila cDNA as the template. The sense and antisense primers for CG30106 were 5′-[…]-3′ and 5′-[…]-3′, respectively. The sense and antisense primers for CG14593 were 5′-[…]-3′ and 5′-[…]-3′, respectively. The amplified cDNA was ligated into the pcDNA3.1 vector (Invitrogen). The expression vector, i.e., CG30106 or CG14593-pcDNA3.1, was transfected into Chinese hamster ovary (CHO) cells by using with Fugene6 transfection reagent (Roche), and stably expressing cells were selected using 1 mg/ml G418. […] Changes in intracellular Ca^2^+ concentrations ([Ca^2^+]i) were measured using the FlexStation 3 fluorometric imaging plate reader to conduct high-throughput measurements of intracellular Ca^2^+ concentration (Molecular Devices, CA, USA; [Marshall et al., 2005]). […] The cells were incubated with 100 μl of Calcium 4 assay kit reagent (Molecular Devices) for 1 h, and then 50 μl of each sample was added to the CHO-CG30106 or CHO-CG14593 cells to induce changes in fluorescence. The maximum [Ca^2^+]i changes were recorded. […]

[2] = tested on: blowfly Phormia regina; assay: Proboscis extension reflex (PER) test; format: in vivo; conditions: 30 min after injection of 10 pmol (1 μl) into the shoulder, linger solution control 236 mM, p < 0.05, five sets of 20 flies
Protocol: The proboscis extension reflex (PER) test and feeding test were performed for the blowfly Phormia regina as previously described ([Nisimura et al., 2005]; [Ida et al., 2011a]). CCHamide-2 was dissolved in blowfly linger solution at a concentration of […]. Twenty flies were secured by their wings using washing pins, and the first PER test was performed by using 12 steps of sucrose concentrations that had been prepared by twofold serial dilutions in distilled water, beginning from a sucrose concentration of 1 M. We investigated the PER in three different groups of 20 flies each: no injection, fly linger injection, and fly linger plus peptide injection. The PER tests were performed 30 min after 1 μl of blowfly linger solution with or without peptide was injected into the shoulder of each fly. We repeated five sets of PER tests each, in which 20 flies were used in each batch.
Results are presented as the mean ± SEM for each group. To compare the PER thresholds among the three groups, we used a non-parametric Steel–Dwass test. The criterion for statistical significance was p < 0.05 for all tests. The statistical software program GraphPad PRISM (GraphPad software, CA, USA) was used for analyses.
In contrast, no difference was observed between the mean PER threshold without any injection and 30 min after linger solution injection (222 and 236 mM, respectively, p > 0.05). […]

[3] = tested on: flies; conditions: administration of CCHamide-2; ref Hiraguchi et al., paper in preparation; cited from earlier work
Text: In addition, CCHamide-1 and CCHamide-2 have been detected in the nervous system and midgut in a mass spectrometry study performed by [Reiher et al. (2011)]. […] It is generally accepted that brain–gut peptides regulate feeding behavior in mammals ([Williams et al., 2001]). These peptides include neuropeptide Y, peptide YY, gastrin-releasing peptide, vasoactive inte ...

[4] = biological target: T1, CG14593 (Drosophila melanogaster, UniProt Q4V622); assay: [Ca2+]i assay in CHO-CG14593 cells (FlexStation 3); format: cell-based; conditions: synthetic peptide not generated; predicted from amount of purified peptide and specific activity
T1 construct: expressed in transfected cells
T1 sequence (Q4V622 1-489): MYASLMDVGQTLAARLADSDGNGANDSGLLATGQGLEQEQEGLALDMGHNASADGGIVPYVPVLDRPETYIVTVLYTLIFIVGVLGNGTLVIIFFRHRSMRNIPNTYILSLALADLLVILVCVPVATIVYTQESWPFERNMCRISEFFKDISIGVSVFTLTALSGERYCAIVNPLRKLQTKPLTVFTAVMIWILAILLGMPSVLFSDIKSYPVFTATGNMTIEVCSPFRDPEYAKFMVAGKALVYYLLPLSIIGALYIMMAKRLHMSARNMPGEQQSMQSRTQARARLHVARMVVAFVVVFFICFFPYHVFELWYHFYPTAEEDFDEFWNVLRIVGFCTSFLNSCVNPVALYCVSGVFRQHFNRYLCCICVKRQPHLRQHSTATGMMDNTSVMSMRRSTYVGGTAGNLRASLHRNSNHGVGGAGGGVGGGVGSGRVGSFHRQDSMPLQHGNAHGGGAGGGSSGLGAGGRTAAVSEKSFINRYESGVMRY
Protocol: as §1

| Compound | [Ca2+]i response in vector-only CHO cells [1] | mean PER threshold (sucrose concentration at which 50% of flies show PER) [2] [mM] | sucrose intake [3] | predicted potency for activating CG14593 [4] |
| --- | --- | --- | --- | --- |
| CC(C)C[C@@H]1NC(=O)[C@@H](NC(=O)[C@@H](N)CO)CSSC[C@@H](C(=O)N[C@@H](Cc2c[nH]c3ccccc23)C(=O)NCC(=O)N[C@@H](C)C(=O)N[C@@H](Cc2c[nH]cn2)C(N)=O)NC(=O)[C@H](CO)NC(=O)[C@H](Cc2c[nH]cn2)NC(=O)CNC(=O)[C@H](Cc2ccc(O)cc2)NC(=O)[C@H](CCC(=O)O)NC1=O [CCHamide-1] (H-SCLEYGHSCWGAH-NH2; disulfide 2-9) | Neither CCHamide-2 nor CCHamide-1 induced a response | – | – | – |
| CC(C)[C@@H]1NC(=O)[C@H](Cc2c[nH]cn2)NC(=O)CNC(=O)[C@H](Cc2ccc(O)cc2)NC(=O)[C@H](C)NC(=O)[C@H](CCC(N)=O)NC(=O)[C@@H](NC(=O)CN)CSSC[C@@H](C(=O)N[C@@H](Cc2ccc(O)cc2)C(=O)NCC(=O)NCC(=O)N[C@@H](Cc2c[nH]cn2)C(N)=O)NC1=O [CCHamide-2] (H-GCQAYGHVCYGGH-NH2; disulfide 2-9) | Neither CCHamide-2 nor CCHamide-1 induced a response | 77.2 | significantly increased | – |
| KKGCQAYGHVCYGGH-NH2 (disulfide 4-11 (inferred); N-terminus assumed; SMILES CC(C)[C@@H]1NC(=O)[C@H](Cc2c[nH]cn2)NC(=O)CNC(=O)[C@H](Cc2ccc(O)cc2)NC(=O)[C@H](C)NC(=O)[C@H](CCC(N)=O)NC(=O)[C@@H](NC(=O)CNC(=O)[C@H](CCCCN)NC(=O)[C@@H](N)CCCCN)CSSC[C@@H](C(=O)N[C@@H](Cc2ccc(O)cc2)C(=O)NCC(=O)NCC(=O)N[C@@H](Cc2c[nH]cn2)C(N)=O)NC1=O) [N-terminal extended form of CCHamide-2 purified from flies; not synthesized] | – | – | – | high potency similar to that of other forms of CCHamide-2 |
